US7470702B2, “Benzimidazoles” (Merck Patent GmbH, priority 2003, dated 2008)

Target: TIE-2 (Homo sapiens, UniProt Q02763)
Assay: Inhibition of TIE-2 (flashplate kinase assay, poly(Glu, Tyr) phosphorylation, 33P-ATP)
Assay type: biochemical
Description: The TIE-2 tests can be carried out, for example, analogously to the methods indicated in WO 02/44156.
The assay determines the inhibiting activity of the substances to be tested in the phosphorylation of the substrate poly(Glu, Tyr) by Tie-2 kinase in the presence of radioactive ^33P-ATP. The phosphorylated substrate binds to the surface of a “flashplate” microtitre plate during the incubation time. After removal of the reaction mixture, the microtitre plate is washed a number of times and the radioactivity on its surface is subsequently measured. An inhibiting effect of the substances to be measured results in lower radioactivity compared with an undisturbed enzymatic reaction.

Chain of TIE-2 (Q02763 23-1124, species assumed): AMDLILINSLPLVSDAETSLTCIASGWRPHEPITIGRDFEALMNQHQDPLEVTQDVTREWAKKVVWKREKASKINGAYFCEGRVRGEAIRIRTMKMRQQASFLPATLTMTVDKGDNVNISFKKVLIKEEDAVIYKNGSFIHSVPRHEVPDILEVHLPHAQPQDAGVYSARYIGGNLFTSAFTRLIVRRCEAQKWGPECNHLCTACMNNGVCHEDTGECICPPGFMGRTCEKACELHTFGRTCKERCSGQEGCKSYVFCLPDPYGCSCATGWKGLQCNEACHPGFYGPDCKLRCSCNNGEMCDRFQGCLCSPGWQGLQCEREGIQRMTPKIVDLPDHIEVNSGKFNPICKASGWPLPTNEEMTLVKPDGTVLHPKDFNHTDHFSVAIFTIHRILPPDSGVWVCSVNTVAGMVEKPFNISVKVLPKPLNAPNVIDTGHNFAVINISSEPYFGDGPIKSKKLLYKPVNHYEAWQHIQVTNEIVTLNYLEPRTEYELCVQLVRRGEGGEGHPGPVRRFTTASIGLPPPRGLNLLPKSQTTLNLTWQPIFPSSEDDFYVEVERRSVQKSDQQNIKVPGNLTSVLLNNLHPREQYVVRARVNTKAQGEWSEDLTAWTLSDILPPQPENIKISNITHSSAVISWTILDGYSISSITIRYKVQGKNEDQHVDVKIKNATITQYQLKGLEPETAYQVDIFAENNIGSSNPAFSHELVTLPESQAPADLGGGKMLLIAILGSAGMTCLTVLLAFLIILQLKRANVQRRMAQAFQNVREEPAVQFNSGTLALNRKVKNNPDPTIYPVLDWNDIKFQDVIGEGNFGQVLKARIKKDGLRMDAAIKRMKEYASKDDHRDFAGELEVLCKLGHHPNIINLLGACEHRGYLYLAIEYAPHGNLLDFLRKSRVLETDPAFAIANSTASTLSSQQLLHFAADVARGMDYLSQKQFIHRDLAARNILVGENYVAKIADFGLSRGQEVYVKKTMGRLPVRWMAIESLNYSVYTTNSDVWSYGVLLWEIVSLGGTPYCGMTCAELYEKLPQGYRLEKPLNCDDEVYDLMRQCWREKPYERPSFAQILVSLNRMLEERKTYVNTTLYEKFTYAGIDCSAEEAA

First: Cc1ccc2nc(Nc3ccc(Oc4ccncc4)cc3)[nH]c2c1 [(3), (6-Methyl-1H-benzimidazol-2-yl)[4-(pyridin-4-yloxy)phenyl]amine]
Second: FC(F)(F)c1cc(Cl)c2nc(Nc3ccc(Oc4ccncc4)cc3)[nH]c2c1 [(14), (4-Chloro-6-trifluoromethyl-1H-benzimidazol-2-yl)[4-(pyridin-4-yloxy)phenyl]amine]
The IC50 of the first is 4.4-fold higher: 4 µM for the first, 0.9 µM for the second. The second is the more potent here.

In the case of FC(F)(F)c1cc(Br)c2nc(Nc3ccc(Oc4ccncc4)cc3)[nH]c2c1 [(5), (4-Bromo-6-trifluoromethyl-1H-benzimidazol-2-yl)[4-(pyridin-4-yloxy)phenyl]amine], the IC50 is reported as 0.5 µM.
